Assay results: article PMC4014704, “β-Boomerang Antimicrobial and Antiendotoxic Peptides: Lipidation and Disulfide Bond Effects on Activity and Structure” (Pharmaceuticals, 2014)
Peptide text beside a SMILES is read from it.

Legend:
[1] = Reverse phase HPLC retention time (hydrophobicity); format: physicochemical; set-up: unit not given beside the values; details: C18 column (300 Å pore size, 5 μm particle size), linear gradient acetonitrile/water, higher Rt taken as more hydrophobic
From the text: Materials: LPS of E. coli 0111:B4, FITC-LPS of E. coli 055:B5, acrylamide, NPN (1-N-phenylnaphthylamine) were purchased from Sigma (Saint Louis, MO, USA). All bacterial strains were obtained from the American Type Culture Collection (Manassas, VA, USA). Designed peptides were synthesized commercially by GL Biochem (Shanghai, China) and further purified by a reverse phase HPLC (Waters), using a C18 column (300 Å pore size, 5 μm particle size). The dimeric variants of β-boomerang lipopeptides were treated with 20% DMSO for 18 hours and the oxidized peptides were further purified by HPLC. A linear gradient of acetonitrile/water mixture was used for the purification and fractions eluting with higher purity were collected and freeze-dried.
(§1) In addition, incorporation of disulfide bridges in AMPs may stabilize conformations and enhance cationicity and hydrophobicity required for enhanced activity. […] Residue Ile10 was chosen for Cys replacement since this residue is located at the exposed face of the β-strand of the YI12WF structure (Figure 1).

[2] = test system: E. coli cells; test: Zeta potential measurements; format: cell-based; details: increasing peptide concentrations, E. coli cells
Description: Zeta potential measurements: The zeta potential measurements were carried out on a Zetasizer Nano ZS (Malvern Instruments, Worcestershire, UK) equipped with a 633 nm He lasers. Mid-log phase grown bacterial cells were diluted to an OD600 of 0.2 and a basal measurement in the absence of peptides was acquired in disposable zeta cells with gold electrodes. Increasing concentrations of the designed peptides were then added to the cells and the measurements were made. A total of five measurements of 100 runs each were carried out for all dilutions.

[3] = test system: outer membrane of E. coli cells; test: Outer membrane permeability assay (NPN dye); format: cell-based; details: E. coli OD600 0.5, 10 μM NPN
Description: Outer membrane permeability assay: Outer membrane of Gram bacteria acts as permeability barrier for hydrophobic antibacterial compounds. […] E. coli cells were grown to mid logarithmic phase and diluted to an OD600nm of 0.5 in 10 mM sodium phosphate buffer, pH 7.0. The excitation was set at 350 nm and emission at 390–450 nm. NPN was added to the diluted cells at the concentration of 10 μM and a basal fluorescence was recorded followed by the addition of increasing concentration of peptides.

[4] = test system: FITC-LPS micelles; test: Dissociation of FITC-LPS; set-up: species or system E. coli 055:B5; details: 500 nM FITC-LPS, increasing peptide, excitation 480 nm, emission 515 nm
Description: Dissociation of FITC-LPS: LPS molecules form micellar aggregates in water. The competency of the peptides to dissociate LPS micelles were studied using FITC conjugated LPS. In this method, blank fluorescence of 500 nM of FITC-LPS was recorded followed by the addition of increasing concentrations of peptides. The excitation was set at 480 nm and emission at 500–550 nm.

[5] = test system: LPS micelles; test: Dynamic light scattering of LPS micelles; set-up: species or system E. coli 0111:B4; details: DLS, 0.5 μM LPS, LPS:peptide 1:4; LPS alone 814 nm
Description: Dynamic light scattering measurements: LPS forms micelles of large sizes, which with the addition of increasing concentration of peptides, dissociates to smaller sizes. DLS measurements were made for 0.5 μM LPS and then with LPS: Peptide ratios of 1:2 and 1:4. The scattering was measured with Dynamic Light Scattering software provided with the instrument (Brookhaven Instruments Corp., Holtsville, NY, USA) and the scattering data was analyzed with CONTIN method.

[6] = test system: LPS micelles; test: Isothermal titration calorimetry; format: binding, E. coli 0111:B4; details: lack of saturation
Description: Isothermal titration calorimetry: Binding of designed peptides with LPS micelles was determined using isothermal titration calorimetry in VP-ITC micro calorimeter (Microcal Inc, Northampton, MA, USA). Peptides and LPS samples were dissolved in 10 mM phosphate buffer, pH 7.0 and filtered. LPS at a concentration of 10 μM was loaded into the sample cell and the reference cell was filled with the same buffer. The syringe was filled with 1mM peptide solution. Typically 30 injections of 3.5 μL of the peptides were made into the sample cell at 25 °C. Sample cell was stirred continuously at 300 rpm. Raw data were obtained and analyzed using single site binding model in Microcal Origin 5.0 software. Association constant (Ka) and enthalpy change (ΔH) were directly determined from ITC profiles. Dissociation constant was calculated from Kd = 1/Ka. ΔG and TΔS were estimated from the fundamental equations of thermodynamics, ΔG = −RTlnKa and TΔS = (ΔH − ΔG), respectively.

[7] = aqueous solution for NMR
From the text: as §1
The solution conformations of YI13C, C4YI13C peptides were examined in free solution using two-dimensional ^1H-^1H NOESY and TOCSY experiments.

Structure (SMILES): CCCCCCCC(=O)N[C@@H](Cc1ccc(O)cc1)C(=O)N[C@H](C(=O)N[C@@H](CC(C)C)C(=O)N[C@@H](C)C(=O)N[C@@H](CCCCN)C(=O)N[C@@H](CCCNC(=N)N)C(=O)N[C@@H](CCCCN)C(=O)N[C@@H](CCCNC(=N)N)C(=O)N[C@@H](CCCCN)C(=O)N[C@@H](C)C(=O)N[C@@H](CSSC[C@H](NC(=O)[C@H](C)NC(=O)[C@H](CCCCN)NC(=O)[C@H](CCCNC(=N)N)NC(=O)[C@H](CCCCN)NC(=O)[C@H](CCCNC(=N)N)NC(=O)[C@H](CCCCN)NC(=O)[C@H](C)NC(=O)[C@H](CC(C)C)NC(=O)[C@@H](NC(=O)[C@H](Cc1ccc(O)cc1)NC(=O)CCCCCCC)C(C)C)C(=O)N[C@@H](Cc1ccccc1)C(=O)N[C@H](C(N)=O)[C@@H](C)CC)C(=O)N[C@@H](Cc1ccccc1)C(=O)N[C@H](C(N)=O)[C@@H](C)CC)C(C)C [C8YI13CAA] (HELM PEPTIDE1{[CCCCCCCC(=O)[*:2]].Y.V.L.A.K.R.K.R.K.A.C.F.I.[am]}|PEPTIDE2{[CCCCCCCC(=O)[*:2]].Y.V.L.A.K.R.K.R.K.A.C.F.I.[am]}$PEPTIDE1,PEPTIDE2,12:R3-12:R3$$$V2.0; N-terminus and C-terminus assumed)
- Retention time (Rt) [1]: 32.38
- Change in zeta potential (in words) [2]: did not show any detectable change in zeta potential
- NPN fluorescence intensity with increasing peptide (in words) [3]: no marked increase in intensity
- FITC fluorescence intensity / dissociation of FITC-LPS (in words) [4]: remained unchanged
- Diameter of LPS aggregates [5]: 630 nm
- Interaction with LPS by ITC (in words) [6]: interacted weakly with LPS
- Solubility for NMR studies (in words) [7]: limited solubility
